Measured values from patent US20230399358A1, “IMMUNOGLOBULIN PURIFICATION PEPTIDES AND THEIR USE” (North Carolina State University, priority 2019, published 2023).

How the values were obtained:
human polyclonal IgG = assay: Isothermal titration calorimetry (ITC) of IgG:ligand binding in solution; conditions: 25° C, PBS pH 7.4, peptide in solution, independent binding model
Description: Measurements of IgG-binding affinity in solution by isothermal titration calorimetry (ITC): Experimental determination of the binding free energy of the IgG:WQRHGI (SEQ ID NO:1) complex was performed by ITC using a Nano ITC Low Volume calorimeter (TA Instruments, New Castle, DE). […] All solutions were filtered through a 0.22 p.m syringe filter prior to use. Ten injections were performed for each measurement. Background energy from peptide dilution was determined by performing 10 injections of 5 μL of a 2 mg/mL solution of WQRHGI (SEQ ID NO:1) in PBS pH 7.4. The titration data were analyzed using NanoAnalyze software (TA Instruments) and plotted using an independent fitting, which fits the resultant Wiseman plot with parameters corresponding to a non-competitive single-site binding phenomenon in order to calculate the binding affinity (K(D(ITC)), and the stoichiometry (N) of the interaction. A constant blank was also utilized in the fitting to account for the heat of dilution of the IgG substrate.
Characterization of binding affinity for IgG-binding peptide variants WQRHGI (SEQ ID NO:1) and MWRGWQ (SEQ ID NO:2) in non-competitive conditions: Candidate peptide ligands WQRHGI (SEQ ID NO:1) and MWRGWQ (SEQ ID NO:2) were selected for experimental evaluation of IgG binding in non-competitive conditions (pure IgG in solution). […]

[1] = test system: human polyclonal IgG in CHO-S cell culture fluid; assay: Static purification of IgG from CHO cell culture supernatant on peptide-Toyopearl resins, SDS-PAGE densitometry; conditions: Gel B
Description: Measurement of IgG binding by peptide-based chromatographic adsorbents: For initial studies, 35 mg of MWRGWQ (SEQ ID NO:2)-Toyopearl, RHLGWF (SEQ ID NO:3)-Toyopearl, WQRHGI (SEQ ID NO:1)-Toyopearl, GWLHQR (SEQ ID NO:4)-Toyopearl, and HWRGWV (SEQ ID NO:18)-Toyopearl (control) resins were equilibrated in PBS pH 7.4, reaching a swollen volume of 0.1 mL, and subsequently incubated with 1 mg/mL IgG in 0.205 mg/mL CHO cell culture supernatant for 30 minutes. The resins were subsequently washed several times with PBS to remove non-specifically bound proteins. Elution was performed with 100 mM glycine buffer pH 2.5. Flowthrough and elution fractions were collected and analyzed by SDS PAGE under reducing conditions. The resulting gels were stained with Coomassie staining. Further, 25 mg of the adsorbents MWRGWQ (SEQ ID NO:2)-Toyopearl, NIFRGWQ (SEQ ID NO:21)-Toyopearl, MWRAWQ (SEQ ID NO:5)-Toyopearl, MWRGFQ (SEQ ID NO:7)-Toyopearl, MWRGWN (SEQ ID NO:22)-Toyopearl, (NorL) WRGWQ (SEQ ID NO:23)-Toyopearl, MGRGWQ (SEQ ID NO:24)-Toyopearl, MWRWQ (SEQ ID NO:6)-Toyopearl, MWRGGQ (SEQ ID NO:26)-Toyopearl, GWRGWQ (SEQ ID NO:8)-Toyopearl, WQRHGI (SEQ ID NO:1)-Toyopearl, WNRHGI (SEQ ID NO:12)-Toyopearl, WQRAGI (SEQ ID NO:28)-Toyopearl, WQRHAI (SEQ ID NO:11)-Toyopearl, WQRHGL (SEQ ID NO:9)-Toyopearl, FQRHGI (SEQ ID NO:29)-Toyopearl, and WQRHGV (SEQ ID NO:10)-Toyopearl resins were equilibrated in PBS pH 7.4, reaching a swollen volume of 0.1 mL, and subsequently incubated with 1 mg/mL IgG in PBS at pH 7.4 for 30 minutes. The amount of unbound IgG in the supernatant samples was quantified by Bradford assay and utilized to determine the IgG binding % by the peptide variants.
Characterization of IgG-binding peptide variants WQRHGI (SEQ ID NO:1), MWRGWQ (SEQ ID NO:2), RHLGWF (SEQ ID NO:3), and GWLHQR (SEQ ID NO:4) in competitive conditions: The four selected sequence variants were tested for their ability to purify human IgG from a CHO cell culture supernatant and found largely to mirror their in silico predictions. Even though they seemed to underperform in silico, RHLGWF (SEQ ID NO:3) and GWLHQR (SEQ ID NO:4) were tested alongside WQRHGI (SEQ ID NO:1) and MWRGWQ (SEQ ID NO:2) in these conditions in order to confirm their ability to bind IgG and examine their selectivity as predicted in silico. The feedstock was prepared by spiking human polyclonal IgG into a clarified null CHO-S cell culture fluid to obtain an IgG concentration of 1 mg/mL and a CHO HCP concentration of 0.205 mg/mL. An aliquot of 500 μL was loaded onto each peptide adsorbent in static conditions for 30 min. Following a washing step with PBS to remove loosely bound proteins, a first elution step was conducted using 0.1 M glycine buffer pH 2.5 to remove all bound proteins. Flow through fractions and pH 2.5 elution fractions were loaded neat and analyzed by SDS PAGE (FIGS. 6A-6B). The values of IgG purity in the eluted fractions were determined by densitometric analysis of the corresponding lanes on the gels, and are reported in Table 9.

Kd (human polyclonal IgG): 58.8 µM
Substance: WQRHGI
% Purity (IgG over total proteins) ([1]; lane FT (flow-through)): 52.71%
% Purity (IgG over total eluted proteins) ([1]; lane R (pH 2.5)): 78.79%
